Assay results from ChEMBL document CHEMBL3525952, “A Baeyer-Villiger oxidation specifically catalyzed by human flavin-containing monooxygenase 5” (Drug Metab Dispos, 2011).

What was measured:
[1] = target: T1, Flavin-containing monooxygenase 3 (Homo sapiens, UniProt P31513); assay: Drug metabolism assessed as human recombinant FMO3-mediated ER-879123 formation in presence NADH at 10 uM after 60 mins by LC-MS/MS method; format: ADME; conditions: recombinant enzyme, 1 h
T1 sequence (P31513 whole entry): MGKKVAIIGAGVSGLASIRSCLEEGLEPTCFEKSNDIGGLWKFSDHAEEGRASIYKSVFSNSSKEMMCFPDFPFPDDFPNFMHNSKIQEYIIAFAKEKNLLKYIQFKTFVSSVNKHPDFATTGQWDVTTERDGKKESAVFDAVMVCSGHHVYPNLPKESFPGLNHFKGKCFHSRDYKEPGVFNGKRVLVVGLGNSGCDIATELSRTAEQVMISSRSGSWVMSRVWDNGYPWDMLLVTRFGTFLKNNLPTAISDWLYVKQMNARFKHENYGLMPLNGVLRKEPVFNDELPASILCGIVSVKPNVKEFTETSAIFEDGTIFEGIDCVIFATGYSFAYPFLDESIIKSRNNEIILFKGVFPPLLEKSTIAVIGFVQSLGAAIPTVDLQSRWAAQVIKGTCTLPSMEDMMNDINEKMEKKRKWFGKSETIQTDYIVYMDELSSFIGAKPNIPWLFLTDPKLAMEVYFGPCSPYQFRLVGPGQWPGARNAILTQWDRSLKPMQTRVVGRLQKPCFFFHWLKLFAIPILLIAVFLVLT

[2] = target: T2, Flavin-containing monooxygenase 1 (Homo sapiens, UniProt Q01740); assay: Drug metabolism assessed as human recombinant FMO1-mediated ER-879123 formation at 10 uM after 60 mins by LC-MS/MS method in presence of NADPH; format: ADME; conditions: recombinant enzyme, 1 h
T2 sequence (Q01740 whole entry): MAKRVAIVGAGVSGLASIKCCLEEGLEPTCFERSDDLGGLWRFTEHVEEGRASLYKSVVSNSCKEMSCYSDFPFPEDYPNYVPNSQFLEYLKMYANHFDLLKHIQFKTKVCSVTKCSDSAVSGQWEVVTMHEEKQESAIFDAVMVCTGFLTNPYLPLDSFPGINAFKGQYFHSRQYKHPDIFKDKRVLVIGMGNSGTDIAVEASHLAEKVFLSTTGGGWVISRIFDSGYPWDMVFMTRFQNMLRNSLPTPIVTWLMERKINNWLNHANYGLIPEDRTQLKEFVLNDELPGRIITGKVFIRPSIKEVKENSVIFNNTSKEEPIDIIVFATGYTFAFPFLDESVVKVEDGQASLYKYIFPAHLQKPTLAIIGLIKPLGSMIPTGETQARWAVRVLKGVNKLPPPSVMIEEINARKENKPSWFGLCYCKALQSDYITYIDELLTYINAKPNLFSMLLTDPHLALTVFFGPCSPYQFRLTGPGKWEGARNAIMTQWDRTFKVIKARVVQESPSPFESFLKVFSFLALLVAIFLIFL

[3] = test system: Liver microsome; assay: Drug metabolism in dog liver microsomes assessed as ER-879123 formation at 10 uM after 60 mins in presence of NADH and carboxylesterase inhibitor BNPP by LC-MS/MS method; format: ADME, Canis lupus familiaris; conditions: 1 h
[4] = target: T1, Flavin-containing monooxygenase 3; assay: Drug metabolism assessed as human recombinant FMO3-mediated ER-879123 formation at 10 uM after 60 mins by LC-MS/MS method in presence of NADPH; format: ADME; conditions: recombinant enzyme, 1 h
[5] = test system: Liver microsome; assay: Drug metabolism in dog liver microsomes assessed as ER-879123 formation at 10 uM after 60 mins in presence of NADH by LC-MS/MS method; format: ADME, Canis lupus familiaris; conditions: 1 h
[6] = test system: Liver microsome; assay: Drug metabolism in human liver microsomes assessed as ER-879123 formation at 10 uM after 60 mins in presence of NADH and carboxylesterase inhibitor BNPP by LC-MS/MS method; format: ADME; conditions: 1 h
[7] = target: T3, Flavin-containing monooxygenase 5 (Homo sapiens, UniProt P49326); assay: Drug metabolism assessed as human recombinant FMO5-mediated ER-879123 formation at 10 uM after 60 mins by LC-MS/MS method in presence of NADPH; format: ADME; conditions: recombinant enzyme, 1 h
T3 sequence (P49326 whole entry): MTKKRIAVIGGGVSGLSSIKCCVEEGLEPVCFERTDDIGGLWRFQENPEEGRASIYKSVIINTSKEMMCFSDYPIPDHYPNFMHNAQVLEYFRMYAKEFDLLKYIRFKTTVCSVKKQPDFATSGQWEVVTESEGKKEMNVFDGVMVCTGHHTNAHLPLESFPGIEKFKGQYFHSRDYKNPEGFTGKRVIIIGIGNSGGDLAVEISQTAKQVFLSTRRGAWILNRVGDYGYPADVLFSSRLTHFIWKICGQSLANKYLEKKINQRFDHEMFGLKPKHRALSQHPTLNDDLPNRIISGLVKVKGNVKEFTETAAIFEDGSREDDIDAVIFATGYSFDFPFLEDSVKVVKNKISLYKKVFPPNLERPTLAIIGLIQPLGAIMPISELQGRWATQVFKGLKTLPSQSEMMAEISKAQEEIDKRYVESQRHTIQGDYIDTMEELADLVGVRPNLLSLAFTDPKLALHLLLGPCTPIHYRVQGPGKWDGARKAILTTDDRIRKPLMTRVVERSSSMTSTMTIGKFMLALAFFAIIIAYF

[8] = target: T3, Flavin-containing monooxygenase 5; assay: Drug metabolism assessed as human recombinant FMO5-mediated ER-879123 formation in presence NADH at 10 uM after 60 mins by LC-MS/MS method; format: ADME; conditions: recombinant enzyme, 1 h
[9] = test system: Liver microsome; assay: Drug metabolism in dog liver microsomes assessed as ER-879123 formation at 10 uM after 60 mins in presence of NADH and FMO1 and FMO3 substrate/inhibitor methimazole by LC-MS/MS method; format: ADME, Canis lupus familiaris; conditions: 1 h
[10] = test system: Liver microsome; assay: Drug metabolism in human liver microsomes assessed as ER-879123 formation at 10 uM after 60 mins in presence of NADH by LC-MS/MS method; format: ADME; conditions: 1 h
[11] = test system: Liver microsome; assay: Drug metabolism in 50 degC treated human liver microsomes assessed as ER-879123 formation at 10 uM after 60 mins in absence of NAD+ by LC-MS/MS method; format: ADME; conditions: 1 h
[12] = test system: Liver microsome; assay: Drug metabolism in human liver microsomes assessed as ER-879123 formation at 10 uM after 60 mins in presence of NADH and FMO1 and FMO3 substrate/inhibitor methimazole by LC-MS/MS method; format: ADME; conditions: 1 h
[13] = target: T2, Flavin-containing monooxygenase 1; assay: Drug metabolism assessed as human recombinant FMO1-mediated ER-879123 formation in presence NADH at 10 uM after 60 mins by LC-MS/MS method; format: ADME; conditions: recombinant enzyme, 1 h
[14] = test system: Liver microsome; assay: Drug metabolism in 50 degC treated dog liver microsomes assessed as ER-879123 formation at 10 uM after 60 mins in absence of NAD+ by LC-MS/MS method; format: ADME, Canis lupus familiaris; conditions: 1 h

Drug metabolism [1]: metabolite_not_detected
Drug metabolism [2]: metabolite_not_detected
Drug metabolism [3]: metabolite_not_detected
Drug metabolism [4]: metabolite_not_detected
Drug metabolism [5]: metabolite_detected
Drug metabolism [6]: metabolite_not_detected
Drug metabolism [7]: metabolite_detected
Drug metabolism [8]: metabolite_detected
Drug metabolism [9]: metabolite_detected
Drug metabolism [10]: metabolite_detected
Drug metabolism [11]: metabolite_not_detected
Drug metabolism [12]: metabolite_detected
Drug metabolism [13]: metabolite_not_detected
Drug metabolism [14]: metabolite_not_detected
Structure (SMILES): O=C1CCN(Cc2ccc3c(c2)-c2n[nH]c(=O)c4cccc(c24)O3)CC1
